{"source": "patent US10130677B2", "about": "“Antimicrobial peptide and uses thereof” (priority 2013, dated 2018)", "format_in_all_cases": "cell-based", "key": {"[1]": {"tested_on": "Candida albicans Y-O1", "description": "Peptides were incubated with 1×10^5 cells/ml of a mid-logarithmic culture of Candida albicans Y-O1, without or with addition of pooled human plasma at a final concentration of 50%. Antimicrobial activity is expressed as the 99% lethal concentration (LC99), i.e., the lowest peptide concentration at which ≥99% of cells were killed after 2 hours of incubation at 37° C. under shaking conditions."}, "[2]": {"tested_on": "LPS (E. coli 054)-induced IL-12p40 production", "assay": "LPS neutralization in whole human blood", "text": "(§1) The term “anti-inflammatory activity” of a polypeptide as used herein refers to inhibiting, reducing or preventing an inflammatory response in a subject that has been infected by microbes, e.g. bacteria, viruses, fungi, and/or parasites. Anti-inflammatory activity of polypeptides of the invention is achieved by inhibiting, reducing or preventing the release of pro-inflammatory microbial compounds, such as lipoteichoic acid (LTA), peptidoglycan (PG) and/or lipopolysaccharides (LPS). Anti-inflammatory activity can be measured by methods known in the art. Examples of such method are a LPS neutralization assay and a LTA neutralization assay as described in the Examples of this application. In such method, a polypeptide of the invention is mixed with a fixed concentration of LPS or LTA, such as 500 ng/ml LPS or 2 mg/ml LTA, and incubated for 30 min. Thereafter, these mixtures were added to diluted fresh human whole blood and 20 hours thereafter the level of cytokines (e.g. 1L-8 for LTA and 1L-12p40 for LPS) in the blood sample are measured by ELISA.\n(§2) Peptides were pre-incubated with 500 ng/ml LPS (E. coli 054) or 2 mg/ml LTA (S. aureus, endotoxin-free) or 1×10^9 CFU/ml of UV-killed S. aureus JAR060131 for 30 min at 37° C. Diluted whole human blood was stimulated with the peptide-LPS/LTA/S. aureus mixtures for 20 hours at 37° C. IL-12p40 and IL-8 levels in supernatants were determined using ELISA."}, "[3]": {"tested_on": "LTA (S. aureus)-induced IL-8 production", "assay": "LTA neutralization in whole human blood", "conditions": "LTA-induced IL-8; blood from one donor", "text": "as §1, §2"}, "[4]": {"tested_on": "UV-killed S. aureus JAR060131-induced IL-8 production", "assay": "S. aureus neutralization in whole human blood", "conditions": "UV-killed S. aureus JAR060131-induced IL-8; blood from one donor", "description": "as §2"}}, "note": "Like-named read-outs stand apart in the source and are kept apart here."}
{"substance": "Ac-IGKEFKRIVERIKRFLRELVRPLR-NH2 [OP-145, JIGKEFKRIVERIKRFLRELVRPLRB, reference compound]", "values": [{"measurement": "antifungal activity against C. albicans Y-O1 (in words)", "setting": "[1]; 50% plasma, at 204.8 μM", "value": "no antifungal activity was observed"}, {"measurement": "LC99", "setting": "[1]; 50% plasma, mean of two experiments", "value": ">204.8", "unit": "µM"}, {"measurement": "antifungal activity against C. albicans Y-O1 (in words)", "setting": "[1]; PBS, at 51.2 μM", "value": "no antifungal activity"}, {"measurement": "LC99", "setting": "[1]; Y-O1, 2 h", "value": ">51.2", "unit": "µM"}, {"measurement": "IC90", "setting": "[2]; LPS-induced IL-12p40, blood from two donors", "value": 1.25, "unit": "nM"}, {"measurement": "IC50", "setting": "[2]; diluted whole human blood, 20 hours", "value": 0.15, "unit": "nM"}, {"measurement": "IC50", "setting": "[3]", "value": 0.781, "unit": "µM"}, {"measurement": "IC50", "setting": "[4]", "value": 0.195, "unit": "µM"}]}
